Measured values published in ChEMBL document CHEMBL1121987 (J Med Chem, 1982).
Activity calls are given as the source filed them. The rule behind the calls is not given here.

What was measured:
[1] = pKa value was determined; assay type: physicochemical
[2] = biological target: Dihydrofolate reductase (Lactobacillus casei) (UniProt P00381); assay: Inhibitory activity tested against dihydrofolate reductase from Lactobacillus casei; conditions: Lacticaseibacillus casei
[3] = biological target: T1, Dihydrofolate reductase (Mus musculus) (UniProt P00375); assay: Inhibitory tested against Dihydrofolate reductase enzyme from L1210 mouse leukemia cells using [3H]methotrexate as a radioligand; assay type: cell-based
T1 sequence (whole entry): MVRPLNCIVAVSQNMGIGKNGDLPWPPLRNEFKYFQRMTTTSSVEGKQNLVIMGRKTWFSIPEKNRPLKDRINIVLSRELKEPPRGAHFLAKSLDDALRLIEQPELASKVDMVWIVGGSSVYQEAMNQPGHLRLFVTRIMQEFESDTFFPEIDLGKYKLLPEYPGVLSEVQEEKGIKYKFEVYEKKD

Mus musculus [4] = species: Mus musculus; assay: Compound was tested for life span loss of mean body weight; assay type: functional
Mus musculus [5] = assay: Compound was tested for life span of weight loss in mice at 4 mg/kg/day; assay type: functional
Mus musculus [6] = assay: In vivo life span increase in mice after 120 mg/kg (mg/kg)/day (q3d X 3) starting 24 hr of ip administration on; No activity; assay type: functional, organism-based; set-up: dose 120 mg/kg; conditions: at 120 mg/kg
Mus musculus [7] = assay: In vivo life span increase in mice after 240 mg/kg (mg/kg)/day (q3d X 3) starting 24 hr of ip administration on; assay type: functional; conditions: route intraperitoneal
Mus musculus [8] = assay: In vivo life span increase in mice after 30 mg/kg (mg/kg)/day (q3d X 3) starting 24 hr of ip administration on;No activity; assay type: functional, organism-based; set-up: dose 30 mg/kg; conditions: at 30 mg/kg
Mus musculus [9] = assay: Compound was tested for life span of weight loss in mice at 1 mg/kg/day; assay type: functional
Mus musculus [10] = species: Mus musculus; assay: Compound was tested for life span of weight gain; assay type: functional
Mus musculus [11] = species: Mus musculus; assay: Growth inhibitory activity against L1210 mouse leukemia cells; assay type: functional
Mus musculus [12] = assay: In vivo life span increase in mice after 60 mg/kg (mg/kg)/day (q3d X 3) starting 24 hr of ip administration on; No activity; assay type: functional, organism-based; set-up: dose 60 mg/kg; conditions: at 60 mg/kg

Chain of Dihydrofolate reductase (Lactobacillus casei) (P00381 whole entry): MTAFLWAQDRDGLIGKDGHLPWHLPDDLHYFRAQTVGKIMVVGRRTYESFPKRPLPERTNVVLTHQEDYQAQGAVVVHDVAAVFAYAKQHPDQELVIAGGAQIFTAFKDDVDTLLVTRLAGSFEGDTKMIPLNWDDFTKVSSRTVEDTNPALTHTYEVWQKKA

Which pKa [1] does the source give for `CC(=O)NCC(=O)O` [ACETURIC ACID] here?
The pKa was 3.6.

For `N[C@@H](CCC(=O)O)C(=O)O` [GLUTAMIC ACID], which pKa [1] is on record?
The pKa was 3.2.

With `Nc1nc(N)c2nc(CNc3ccc(CNC(CO)CCC(=O)O)cc3)cnc2n1` (stereo not given) as the compound, how does the ID50 [2] read?
The ID50 was 470 nM.

What about the ID50 [3] of the same compound?
The ID50 was 24 nM.

And the Loss (Mus musculus [4])?
Its Loss is 5%.

What about the ILS at 4 mg/kg/day (Mus musculus [5]) of the same compound?
Its ILS at 4 mg/kg/day is 45%.

And the Increase (Mus musculus [6])?
Its Increase is “inactive”.

And the Increase (Mus musculus [7])?
The Increase was 22%.

And the Increase (Mus musculus [8])?
Its Increase is “inactive”.

What about the ILS at 1 mg/kg/day (Mus musculus [9]) of the same compound?
Its ILS at 1 mg/kg/day is 27%.

And the Weight gain (Mus musculus [10])?
Its Weight gain is 13%.

And the Activity (Mus musculus [11])?
Its Activity is 1 µM.

And the Increase (Mus musculus [12])?
Its Increase is “inactive”.

What does the source list for `Nc1nc(N)c2nc(CNc3ccc(C(=O)N[C@@H](CCC(=O)O)C(=O)O)cc3)cnc2n1`?
ID50 [2]: 27 nM; ID50 [3]: 2.2 nM
